Data published in article PMC9503778, “Targeted Isolation of Antibiotic Brominated Alkaloids from the Marine Sponge Pseudoceratina durissima Using Virtual Screening and Molecular Networking” (Marine Drugs, 2022).
“And” between values parts separate entries of the source, which are not always exact repeats. Identical values can stand only once. Like-named read-outs stand apart in the source and are kept apart here.

Assays:
[1] = Cytotoxicity assay (CO-ADD); format: cell-based; settings: human embryonic kidney cells
[2] = system: C. neoformans var. grubii strain ATCC 208821; assay: Antimicrobial growth inhibition (CO-ADD), C. neoformans; format: cell-based, Cryptococcus neoformans; settings: for % inhibition C. neoformans: 32 µg/mL, duplicate (n = 2) values; for inhibition at 32 µg/mL: Cryptococcus neoformans, ATCC208821, read-out: % inhibition C. neoformans, 32 µg/mL, duplicate (n = 2) values
Description: (§1) Compounds 1−3 and 5−12 were assayed against a selection of medically important pathogenic microorganisms (MRSA, E. coli, K. pneumoniae, A. baumanii, P. aeruginosa, C. albicans, C. neoformans), Table 4. […] To the best of our knowledge this compound had not been tested against any drug resistant strain of Gram-positive bacterium until this study.
(§2) The antimicrobial activity testing was performed by the Community for Antimicrobial Drug Discovery (CO-ADD). Compounds were assayed against a range of both Gram negative and Gram positive bacteria (see Supplementary Materials S3) including methicillin-resistant Staphylococcus aureus (MRSA) (G+), Escherichia coli (G-), Klebsiella pneumoniae (G-), Acinetobacter baumannii (G-), Pseudomonas aeruginosa (G-) together with two species of fungus (Candida albicans and Cryptococcus neoformans).
(§3) S3. Antimicrobial activity testing methodology
(§4) The compounds submitted to CO-ADD were evaluated in duplicate (n = 2) against seven microorganisms (five bacteria and two fungi) at a concentration of 32 µg/mL in a 384-well, non-binding surface plate (NBS) for each bacterial/fungal strain, keeping the final DMSO concentration to a maximum of 1% DMSO. All bacteria were cultured in cation-adjusted […]
(§5) Fungal strains were cultured for 3 days on Yeast Extract-Peptone Dextrose (YPD) agar at 30 °C. A yeast suspension of 1 x 10^6 to 5 x 10^6 CFU/mL (as determined by OD530) was prepared from five colonies. The suspension was subsequently diluted and added to each well of the compound-containing plates giving a final cell density of fungi suspension of 2.5 x 10^3 CFU/mL and a total volume of 50 µL. All plates were covered and incubated at 35 °C for 24 h without shaking. […]
Growth inhibition of C. albicans was determined measuring absorbance at 530 nm (OD530), while the growth inhibition of C. neoformans was determined measuring the difference in absorbance between 600 and 570 nm (OD600-570), after the addition of resazurin (0.001% final concentration) and incubation at 35 °C for an additional 2 h. The absorbance was measured using a Biotek Synergy HTX plate reader. The percentage of growth inhibition was calculated for each well, using negative control (medium only) and positive control (bacteria without inhibitors) on the same plate as the references. The significance of inhibition values was determined by modified Z-scores, calculated using the median and MAD of the samples (no controls) on the same plate. Samples with inhibition value above 80% and Z-score above 2.5 for either replicate (n = 2 on different plates) were classed as actives.
(§6) Colistin and vancomycin were used as positive bacterial inhibitor standards for Gram-negative and Gram-positive bac-teria, respectively. Fluconazole was used as a positive fungal inhibitor standard for C. albicans and C. neoformans. The antibiotics were provided in four concentrations, with two above and two below its MIC value, and plated into the first eight wells of column 23 of the 384-well NBS plates. The quality control (QC) of the assays was determined by the antimicrobial controls and the Z’-factor (using positive and negative controls). Each plate was deemed to fulfil the qual- […]
(§7) full growth inhibition at their highest concentration, and no growth inhibition at their lowest concentration. The seven […]
(§8) test microorganisms were Staphylococcus aureus MRSA (ATCC 43300), Escherichia coli (ATCC 25922), Klebsiella pneu-moniae (ATCC 700603), Acinetobacter baumanii (ATCC19606), Pseudomonas aeruginosa (ATCC 27853), Candida albicans (ATCC 90028) and Cryptococcus neoformans var. grubii (H99; ATCC 208821).
(§9) S4. Anthelmintic activity testing methodology
Dose-response evaluations were carried out to estimate the half-maximal inhibitory concentrations (IC50 values) for compounds against Haemonchus contortus (Haecon-5 strain) exsheathed third-stage larvae (xL3s). H. contortus were maintained in experimental sheep and procured in accordance with the institutional animal ethics guidelines and the […]

human red blood cells = assay: Haemolysis assay (CO-ADD); format: cell-based
[3] = system: K. pneumoniae (G-) strain ATCC 700603; assay: Antimicrobial growth inhibition (CO-ADD), K. pneumoniae; format: cell-based, Klebsiella pneumoniae; settings: for % inhibition K. pneumoniae: 32 µg/mL; for inhibition at 32 µg/mL / MIC: Klebsiella pneumoniae
Description: as §1, §2, §3
(§10) The compounds submitted to CO-ADD were evaluated in duplicate (n = 2) against seven microorganisms (five bacteria and two fungi) at a concentration of 32 µg/mL in a 384-well, non-binding surface plate (NBS) for each bacterial/fungal strain, keeping the final DMSO concentration to a maximum of 1% DMSO. All bacteria were cultured in cation-adjusted Mueller-Hinton broth (CAMHB) at 37 °C overnight. A sample of each culture was then diluted 40-fold in fresh broth and incubated at 37 °C for 1.5-3 h. The resultant mid-log phase cultures were diluted (CFU/mL measured by OD600), then added to each well of the compound containing plates, giving a cell density of 5x10^5 CFU/mL and a total volume of 50 µL. All the plates were covered and incubated at 37 °C for 18 h without shaking. […] Inhibition of bacterial growth was determined measuring absorbance at 600 nm (OD600) using a Tecan M1000 Pro mon-ochromator plate reader. […]
(§11) 2 h. The absorbance was measured using a Biotek Synergy HTX plate reader. The percentage of growth inhibition was calculated for each well, using negative control (medium only) and positive control (bacteria without inhibitors) on the same plate as the references. The significance of inhibition values was determined by modified Z-scores, calculated using the median and MAD of the samples (no controls) on the same plate. Samples with inhibition value above 80% and Z-score above 2.5 for either replicate (n = 2 on different plates) were classed as actives.
as §6, §7, §8, §9
(§12) Dose-response evaluations were carried out to estimate the half-maximal inhibitory concentrations (IC50 values) for compounds against Haemonchus contortus (Haecon-5 strain) exsheathed third-stage larvae (xL3s). H. contortus were maintained in experimental sheep and procured in accordance with the institutional animal ethics guidelines and the regulations of Australia (permit no. 1714374; University of Melbourne). Immediately prior to use, third-stage larvae (L3s) were exsheathed and sterilised by incubation in 0.15% (v/v) bleach at 38 °C for 20 min, followed by washes in […]

[4] = system: C. albicans (yeast) ATCC 90028; assay: Antimicrobial growth inhibition (CO-ADD), C. albicans; format: cell-based, Candida albicans; settings: for % inhibition C. albicans: 32 µg/mL, duplicate (n = 2) values; for MIC / inhibition at 32 µg/mL: Candida albicans; for inhibition at 32 µg/mL: ATCC90028, read-out: % inhibition C. albicans, 32 µg/mL, duplicate (n = 2) values
Description: as §1, §2, §3, §4, §5, §11, §6, §7, §8, §9
Dose-response evaluations were carried out to estimate the half-maximal inhibitory concentrations (IC50 values) for compounds against Haemonchus contortus (Haecon-5 strain) exsheathed third-stage larvae (xL3s). H. contortus were maintained in experimental sheep and procured in accordance with the institutional animal ethics guidelines and the regulations of Australia (permit no. 1714374; University of Melbourne). Immediately prior to use, third-stage larvae (L3s) were exsheathed and sterilised by incubation in 0.15% (v/v) bleach at 38 °C for 20 min, followed by washes in sterile saline at room temperature (22-24 °C). […]

[5] = system: E. Coli (G-) strain ATCC 25922; assay: Antimicrobial growth inhibition (CO-ADD), E. coli; format: cell-based, Escherichia coli; settings: for % inhibition E. coli: 32 µg/mL; for inhibition at 32 µg/mL / MIC: Escherichia coli
Description: as §1, §2, §3, §10, §11, §6, §7, §8, §9, §12

[6] = ATCC700603, 32 µg/mL, duplicate (n = 2) values, read-out: % inhibition K. pneumoniae
[7] = ATCC700603, ATCC 700603, read-out: MIC K. pneumoniae
[8] = ATCC90028, ATCC 90028, read-out: MIC C. albicans
[9] = ATCC25922, ATCC 25922, MIC = concentration at which growth inhibited by ≥80%, read-out: MIC E. coli
[10] = ATCC700603, read-out: % inhibition K. pneumoniae, 32 µg/mL, duplicate (n = 2) values
[11] = ATCC25922, read-out: % inhibition E. coli, 32 µg/mL, duplicate (n = 2) values

COC1(OC)C(Br)=CC(O)(CC(N)=O)C=C1Br [Compound 6, 2-(3,5-dibromo-1-hydroxy-4,4-dimethoxycyclohexa-2,5-dien-1-yl)acetamide]
CC50 ([1]; human): > 32 µg/mL | % inhibition C. neoformans [2]: 11.1% and 2.0% | Haemolysis (HC10) (human red blood cells): >32 µg/mL | % inhibition K. pneumoniae ([3]; duplicate (n = 2) values): 6.4% | inhibition at 32 µg/mL [3, 6]: 12.3% | MIC [3, 7]: > 32 µg/mL | % inhibition C. albicans [4]: 0.6% and 4.6% | MIC [4, 8]: > 32 µg/mL | % inhibition E. coli ([5]; duplicate (n = 2) values): 15.6% | inhibition at 32 µg/mL ([5]; ATCC25922, 32 µg/mL, duplicate (n = 2) values, read-out: % inhibition E. coli): 14.6% | MIC [5, 9]: > 32 µg/mL

COC1=C(Br)[C@H](O)[C@@]2(C=C1Br)CC(C(=O)NCCCOc1c(Br)cc(CCN)cc1Br)=NO2 [Compound 11, araplysillin I]
CC50 [1]: > 32 µg/mL | % inhibition C. neoformans [2]: 7.8% | inhibition at 32 µg/mL [2]: 7.6% | Haemolysis (HC10) (human red blood cells): >32 µg/mL | % inhibition K. pneumoniae ([3]; duplicate (n = 2) values): 17.0% | inhibition at 32 µg/mL [3, 10]: 12.2% | MIC [3, 7]: > 32 µg/mL | MIC [4, 8]: > 32 µg/mL | % inhibition E. coli ([5]; duplicate (n = 2) values): 8.5% | inhibition at 32 µg/mL [5, 11]: 15.9% | MIC [5, 9]: > 32 µg/mL

COC1=C(Br)[C@H](O)[C@](O)(CC#N)C=C1Br [Compound 1, (+)-aeroplysinin-1]
CC50 [1]: > 32 µg/mL | % inhibition C. neoformans [2]: −6.6% and 0.0% | Haemolysis (HC10) (human red blood cells): >32 µg/mL | % inhibition K. pneumoniae ([3]; duplicate (n = 2) values): −2.8% and −3.3% | MIC ([3]; ATCC700603, read-out: MIC K. pneumoniae): > 32 µg/mL | % inhibition C. albicans [4]: 9.8% | inhibition at 32 µg/mL [4]: 9.5% | MIC ([4]; ATCC90028, read-out: MIC C. albicans): > 32 µg/mL | % inhibition E. coli ([5]; duplicate (n = 2) values): 95.2% | inhibition at 32 µg/mL [5, 11]: 93.7% | MIC ([5]; ATCC25922, read-out: MIC E. coli): 32 µg/mL | inhibition at 32 µg/mL ([5]; ATCC25922, read-out: mean value of % inhibition against E. coli, 32 µg/mL, mean of duplicates): 94.5%

COC1=C(Br)[C@H](O)[C@@]2(C=C1Br)CC(C(=O)NCCCCCNC(=O)C1=NO[C@]3(C=C(Br)C(OC)=C(Br)[C@@H]3O)C1)=NO2 [Compound 3, homoaerothionin]
CC50 [1]: > 32 µg/mL | % inhibition C. neoformans [2]: 16.1% | inhibition at 32 µg/mL [2]: 10.6% | Haemolysis (HC10) (human red blood cells): >32 µg/mL | % inhibition K. pneumoniae ([3]; duplicate (n = 2) values): 6.6% | inhibition at 32 µg/mL [3, 10]: 10.2% | MIC [3, 7]: > 32 µg/mL | % inhibition C. albicans [4]: 6.3% | inhibition at 32 µg/mL [4]: 3.4% | MIC [4, 8]: > 32 µg/mL | % inhibition E. coli ([5]; duplicate (n = 2) values): −2.9% and −3.1% | MIC [5, 9]: > 32 µg/mL

COC1=C(Br)[C@H](O)[C@@]2(C=C1Br)CC(C(=O)NCCCCNC(=O)C1=NO[C@]3(C=C(Br)C(OC)=C(Br)[C@@H]3O)C1)=NO2 [Compound 2, aerothionin]
CC50 ([1]; human): > 32 µg/mL | Haemolysis (HC10) (human red blood cells): >32 µg/mL | % inhibition K. pneumoniae ([3]; duplicate (n = 2) values): 10.9% | inhibition at 32 µg/mL [3, 6]: 10.4% | MIC [3, 7]: > 32 µg/mL | % inhibition C. albicans [4]: 0.5% and 4.2% | MIC [4, 8]: > 32 µg/mL | % inhibition E. coli ([5]; duplicate (n = 2) values): 0.9% and 2.3% | MIC [5, 9]: > 32 µg/mL

COC1=C(Br)[C@H](O)[C@@]2(C=C1Br)CC(C(=O)NCCCOc1c(Br)cc(CCNC(=O)C3=NO[C@]4(C=C(Br)C(OC)=C(Br)[C@@H]4O)C3)cc1Br)=NO2 [Compound 5, 11,17-deoxyfistularin-3]
CC50 [1]: > 32 µg/mL | % inhibition C. neoformans [2]: 10.4% and 3.8% | Haemolysis (HC10) (human red blood cells): >32 µg/mL | % inhibition K. pneumoniae ([3]; duplicate (n = 2) values): 8.7% | inhibition at 32 µg/mL [3, 10]: 6.5% | MIC [3, 7]: > 32 µg/mL | % inhibition C. albicans [4]: 3.3% | inhibition at 32 µg/mL [4]: 2.5% | MIC [4, 8]: > 32 µg/mL | % inhibition E. coli ([5]; duplicate (n = 2) values): 9.5% | inhibition at 32 µg/mL [5, 11]: 8.1% | MIC [5, 9]: > 32 µg/mL
